In patent US12419884B2, “Compositions and methods for treating iron overload” (BRIGHAM YOUNG UNIVERSITY, priority 2018, dated 2025):

The compounds below were run on hepcidin secretion from HepG2 cells (assay: hepcidin secretion from IL-6 and BMP-9 inflamed HepG2 cells, Mass Spectrometry). Conditions: IL-6 and BMP-9 (10 ng/mL each), inhibitors at 10 micromolar, FIG. 9.
Assay type: cell-based

Row | SMILES | inhibition of hepcidin secretion
1 | CC(C)c1nc(CN(C)C(=O)N[C@H](C(=O)N[C@@H](Cc2ccccc2)C[C@H](O)[C@H](Cc2ccccc2)NC(=O)OCc2cncs2)C(C)C)cs1 [Ritonavir] | small inhibitory effect
2 | CC(C)(C)NC(=O)[C@@H]1CN(Cc2cccnc2)CCN1C[C@@H](O)C[C@@H](Cc1ccccc1)C(=O)N[C@H]1c2ccccc2C[C@H]1O [indinavir, (2S)-1-[(2S,4R)-4-benzyl-2-hydroxy-4-{[(1S,2R)-2-hydroxy-2,3-dihydro-1Hinden-1-yl]carbamoyl}butyl]-N-tert-butyl-4-(pyridin-3-ylmethyl)piperazine-2-carboxamide] | more potent response

These compounds were tested against furin (Homo sapiens, UniProt P09958) (assay: furin fluorescence assay / enzyme assays with purified furin). Conditions: in vitro fluorescence assay; 55, 110 and 220 micromolar doses; FIG. 7.
furin, sequence (P09958 108-794, species assumed): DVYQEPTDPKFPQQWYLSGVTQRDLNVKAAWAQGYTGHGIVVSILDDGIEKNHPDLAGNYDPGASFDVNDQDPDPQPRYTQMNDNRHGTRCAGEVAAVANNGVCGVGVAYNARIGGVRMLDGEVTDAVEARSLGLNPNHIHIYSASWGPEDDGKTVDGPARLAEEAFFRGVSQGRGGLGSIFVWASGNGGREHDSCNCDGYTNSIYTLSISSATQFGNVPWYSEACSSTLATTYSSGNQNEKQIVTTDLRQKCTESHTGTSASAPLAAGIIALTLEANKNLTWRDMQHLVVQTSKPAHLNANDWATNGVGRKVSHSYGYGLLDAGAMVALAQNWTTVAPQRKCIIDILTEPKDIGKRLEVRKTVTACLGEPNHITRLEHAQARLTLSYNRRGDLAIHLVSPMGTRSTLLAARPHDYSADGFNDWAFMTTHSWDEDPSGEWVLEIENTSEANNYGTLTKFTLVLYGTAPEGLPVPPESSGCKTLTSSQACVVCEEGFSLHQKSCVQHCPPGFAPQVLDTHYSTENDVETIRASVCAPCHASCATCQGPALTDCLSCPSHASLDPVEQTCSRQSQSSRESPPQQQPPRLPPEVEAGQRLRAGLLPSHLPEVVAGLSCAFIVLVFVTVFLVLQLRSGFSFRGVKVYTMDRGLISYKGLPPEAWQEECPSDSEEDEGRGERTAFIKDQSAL

Row | furin inhibition | SMILES
3 | most potent furin inhibition | CC(C)CN(C[C@@H](O)[C@H](Cc1ccccc1)NC(=O)O[C@H]1CO[C@H]2OCC[C@H]21)S(=O)(=O)c1ccc(N)cc1 [Darunavir, [(1R,5S,6R)-2,8-dioxabicyclo[3.3.0]oct-6-yl] N-[(2S,3R)-4-[(4-aminophenyl)sulfonyl-(2-methylpropyl)amino]-3-hydroxy-1-phenyl-butan-2-yl]carbamate]
4 | most potent furin inhibition | Cc1c(O)cccc1C(=O)N[C@@H](CSc1ccccc1)[C@H](O)CN1C[C@H]2CCCC[C@H]2C[C@H]1C(=O)NC(C)(C)C [Nelfinavir, (3S,4aS,8aS)—N-tert-butyl-2-[(2R,3R)-2-hydroxy-3-[(3-hydroxy-2-methylphenyl)formamido]-4-(phenylsulfanyl)butyl]-decahydroisoquinoline-3-carboxamide]
5 | most potent furin inhibition | CC(C)c1nc(CN(C)C(=O)N[C@H](C(=O)N[C@@H](Cc2ccccc2)C[C@H](O)[C@H](Cc2ccccc2)NC(=O)OCc2cncs2)C(C)C)cs1 [Ritonavir]

Row | SMILES | furin inhibition
6 | CC(C)(C)NC(=O)[C@@H]1CC2CCCCC2CN1C[C@@H](O)[C@H](Cc1ccccc1)NC(=O)[C@H](CC(N)=O)NC(=O)c1ccc2ccccc2n1 (stereo partly drawn) [Saquinavir, (2S)—N-[(2S,3R)-4-[(3S)-3-(tert-butylcarbamoyl)-decahydroisoquinolin-2-yl]-3-hydroxy-1-phenylbutan-2-yl]-2-(quinolin-2-yl-formamido)butanediamide] | very weak dose dependent inhibition of furin

What follows are compounds tested on hepcidin secretion from HepG2 cells (assay: hepcidin secretion from IL-6 inflamed HepG2 cells, ELISA). Conditions: IL-6 (10 ng/mL), inhibitors at 10 ng/mL, FIG. 8.
Assay type: cell-based
Protocol: HepG2 cells were cultured with controls not treated with additional treatments. The remaining cells were all treated to induce inflammation IL-6 (10 ng/mL). Inhibitors were added at 10 ng/mL to block furin and prevent the cleavage of prohepcidin to hepcidin. Hepcidin secreted into the growth media was measured by ELISA.

Row | SMILES | inhibition of hepcidin secretion
7 | COC(=O)N[C@H](C(=O)N[C@@H](Cc1ccccc1)[C@@H](O)CN(Cc1ccc(-c2ccccn2)cc1)NC(=O)[C@@H](NC(=O)OC)C(C)(C)C)C(C)(C)C [Atazanvir, methyl N-[(1S)-1-{[(2S,3S)-3-hydroxy-4-[(2S)-2-[(methoxycarbonyl)amino]-3,3-dimethyl-N′-{[4-(pyridin-2-yl)phenyl]methyl}butanehydrazido]-1-phenylbutan-2-yl]carbamoyl}-2,2-dimethylpropyl]carbamate] | showed inhibition of hepcidin secretion
8 | Cc1cccc(C)c1OCC(=O)N[C@@H](Cc1ccccc1)[C@@H](O)C[C@H](Cc1ccccc1)NC(=O)[C@H](C(C)C)N1CCCNC1=O [Lopinavir, (2S)—N-[(2S,4S,5S)-5-[2-(2,6-dimethylphenoxy)acetamido]-4-hydroxy-1,6-diphenylhexan-2-yl]-3-methyl-2-(2-oxo-1,3-diazinan-1-yl)butanamide] | showed inhibition of hepcidin secretion
9 | CC(C)CN(C[C@@H](OP(=O)(O)O)[C@H](Cc1ccccc1)NC(=O)O[C@H]1CCOC1)S(=O)(=O)c1ccc(N)cc1 [fosamprenavir] | showed inhibition of hepcidin secretion
